As usually defined, the IC50 is the concentration that gives 50% inhibition. A lower IC50 goes with inhibition by little substance.

The text below walks through data of US20140343017A1, “PYRROLE COMPOUND” (Kabushiki Kaisha Yakult Honsha, priority 2012, published 2014).

The experiment deals with PTX-resistant H460/PV2-7 cells. As to the kind of experiment: Inhibitory effect on growth of PTX-resistant tumor cell line highly expressing TUBB3 (in vitro). The format is cell-based, human. The conditions noted are these: for Resistance rate: H460/PV2-7 versus parent line H460; for IC50: Homo sapiens, NCI-H460, H460/PV2-7 cells, 96 hours culture, WST-8. (Formazan colour is commonly taken as a measure of viable cells.)

As for `CO[C@H]1C(=O)[C@]2(C)[C@@H](OC)C[C@H]3OC[C@@]3(OC(C)=O)[C@H]2[C@H](OC(=O)c2ccccc2)[C@]2(O)C[C@H](OC(=O)[C@H](O)[C@@H](NC(=O)OC(C)(C)C)c3ccccc3)C(C)=C1C2(C)C` [Cabazitaxel, cabazitaxel], the Resistance rate worked out at 3.2 and inhibition was half-maximal at 4 nM (IC50).
In the case of `Cc1c(-c2nnn(CCO)n2)[nH]c(CO)c1C(=O)c1cccc(Br)c1` [Compound 121, (3-bromophenyl)(5-(2-(2-hydroxyethyl)-2H-tetrazol-5-yl)-2-(hydroxymethyl)-4-methyl-1H-pyrrol-3-yl)methanone], the Resistance rate was determined as 0.27 and it took 20.6 nM to reach half-maximal inhibition (IC50).
As to `Cc1c(-c2nnn(CCO)n2)[nH]c(C(C)O)c1C(=O)c1cccc(Br)c1` (stereo not shown) [Compound 123, (3-bromophenyl)(2-(1-hydroxyethyl)-5-(2-(2-hydroxyethyl)-2H-tetrazol-5-yl)-4-methyl-1H-pyrrol-3-yl)methanone], the Resistance rate is recorded as 0.31 and the IC50 came to 21 nM.
As to `CNC(=O)c1[nH]c(-c2nnn(CCO)n2)c(C)c1C(=O)c1cccc(Br)c1` [Compound 142, 3-(3-bromobenzoyl)-5-(2-(2-hydroxyethyl)-2H-tetrazol-5-yl)-N,4-dimethyl-1H-pyrrole-2-carboxamide], the Resistance rate is 0.29 and the concentration for half-maximal inhibition (IC50) worked out at 108 nM.
On to `CC(=O)O[C@@]12CO[C@@H]1C[C@H](O)[C@@]1(C)C(=O)[C@H](O)C3=C(C)[C@@H](OC(=O)[C@H](O)[C@@H](NC(=O)OC(C)(C)C)c4ccccc4)C[C@@](O)([C@@H](OC(=O)c4ccccc4)[C@H]21)C3(C)C` [Docetaxel, docetaxel], for which the Resistance rate was 2.6 and 4 nM corresponded to half-maximal inhibition (IC50).
Regarding `CC(=O)O[C@H]1C(=O)[C@@]2(C)[C@H]([C@H](OC(=O)c3ccccc3)[C@]3(O)C[C@H](OC(=O)[C@H](O)[C@@H](NC(=O)c4ccccc4)c4ccccc4)C(C)=C1C3(C)C)[C@]1(OC(C)=O)CO[C@@H]1C[C@@H]2O` [Paclitaxel, paclitaxel, reference compound], the Resistance rate is 4.6 and the IC50 amounted to 16.5 nM. The Resistance rate result (listed as PTX) is reported as “approximately 4.6”.
